In paper PMC5107130 (Pharmacological Research, 2016):
“Also recorded” adds a separate entry of the source. Like-named read-outs stand apart in the source and are kept apart here.

Key:
[1] = Counterscreen: AzMC fluorescence signal generated by the H2S donor GYY4137
[2] = system: HCT116 cells; assay: Cell proliferation, xCELLigence system; assay type: cell-based, human; conditions: Cell Index, 48 h, concentration in the value
[3] = biological target: T1, Recombinant full length human CBS (Homo sapiens, UniProt P35520); assay: AzMC fluorescence assay of CBS-derived H2S production; assay type: biochemical; conditions: for % inhibition of CBS-induced AzMC fluorescence: copper compounds, mean ± SEM, n = 3
T1 sequence (P35520 1-551): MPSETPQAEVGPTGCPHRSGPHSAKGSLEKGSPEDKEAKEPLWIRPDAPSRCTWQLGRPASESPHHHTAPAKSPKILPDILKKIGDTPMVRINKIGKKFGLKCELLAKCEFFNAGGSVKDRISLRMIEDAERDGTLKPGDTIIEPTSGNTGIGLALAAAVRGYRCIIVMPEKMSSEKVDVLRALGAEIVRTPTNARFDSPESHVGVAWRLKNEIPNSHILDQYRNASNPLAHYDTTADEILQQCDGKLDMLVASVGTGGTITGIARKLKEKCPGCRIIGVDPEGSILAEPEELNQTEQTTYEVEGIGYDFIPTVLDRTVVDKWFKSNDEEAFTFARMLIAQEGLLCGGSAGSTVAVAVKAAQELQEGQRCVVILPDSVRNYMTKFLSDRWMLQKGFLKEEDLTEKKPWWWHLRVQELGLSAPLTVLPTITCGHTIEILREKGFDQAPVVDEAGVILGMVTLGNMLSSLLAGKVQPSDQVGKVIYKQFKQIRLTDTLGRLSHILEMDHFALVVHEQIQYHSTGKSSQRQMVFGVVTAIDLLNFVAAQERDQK

[4] = system: HCT116 cells; assay: Mitochondrial function, MTT assay; assay type: cell-based, human; conditions: 48 h
[5] = system: HCT116 cells; assay: Cytotoxicity, lactate dehydrogenase; assay type: cell-based, human; conditions: 48 h
[6] = biological target: T1, Recombinant full length human CBS; assay: Methylene blue assay of CBS-derived H2S; assay type: biochemical; conditions: read-out: % inhibition of CBS-induced methylene blue signal
[7] = system: CSE; conditions: cited from earlier work
[8] = system: CBS; conditions: cited from earlier work; for % inhibition of CBS activity: 1 mM
[9] = read-out: % inhibition of CBS-induced AzMC fluorescence

Compound: [Cl][Cu][Cl] [CuCl2, copper(II) chloride]
- % inhibition of GYY4137-induced AzMC fluorescence ([1]; copper compounds, 0.1 μM, mean ± SEM, n = 3): 1 ± 1%
- % inhibition of GYY4137-induced AzMC fluorescence ([1]; copper compounds, 0.3 μM, mean ± SEM, n = 3): 10 ± 1%
- % inhibition of GYY4137-induced AzMC fluorescence ([1]; copper compounds, 1 μM, mean ± SEM, n = 3): 14 ± 1%
- Effect on HCT116 cell proliferation (words) [2]: only inhibited HCT116 cells proliferation at the highest concentration tested (1 mM)
- Effect on HCT116 cell proliferation (words) ([2]; listed as copper ions): up to 300 μM, did not inhibit HCT116 cell proliferation
- % inhibition of CBS-induced AzMC fluorescence ([3]; 0.1 μM): 36 ± 1%
- % inhibition of CBS-induced AzMC fluorescence ([3]; 0.3 μM): 60 ± 2%
- % inhibition of CBS-induced AzMC fluorescence ([3]; 1 μM): 90 ± 1%
- IC50 ([3]; read-out: IC50, inhibition of recombinant CBS (CBS-induced AzMC fluorescence), cell-free, 2 mM L-cysteine and homocysteine): ~200 nM
- MTT conversion in HCT116 cells [4]: decreased MTT conversion
- Cytotoxicity / LDH release in HCT116 cells [5]: paradoxical reduction in LDH activity

Compound: Cn1ncnc2c(=O)n(C)c(=O)nc1-2 [NSC67078, 1,6-dimethyl-pyrimido[5,4-e]-1,2,4-triazine-5,7(1H,6H)-dione]
- % inhibition of GYY4137-induced AzMC fluorescence ([1]; 1 μM, mean ± SEM, n = 3): 25 ± 1%
- % inhibition of GYY4137-induced AzMC fluorescence ([1]; 10 μM, mean ± SEM, n = 3): 65 ± 1%
- % inhibition of GYY4137-induced AzMC fluorescence ([1]; 30 μM, mean ± SEM, n = 3): 78 ± 1%
- IC50 ([1]; read-out: IC50, inhibition of GYY4137-induced AzMC fluorescence, scavenging/non-specific effects): ~6 µM
- inhibition at 1 µM [6]: 59 ± 2%
- inhibition at 10 µM [6]: 73 ± 1%
- inhibition at 30 µM [6]: 95 ± 1%
- Potency of CSE inhibition relative to CBS inhibition (fold lower) [7]: 3 fold
- IC50 [3]: ~1000 nM
- inhibition at 1 µM [3, 9]: 47 ± 1%
- inhibition at 10 µM [3, 9]: 88 ± 1%
- inhibition at 30 µM [3, 9]: 93 ± 1%
- MTT conversion in HCT116 cells [4]: suppression of MTT conversion

Compound: N[C@@H]1CON=C1O [D-cycloserine]
- % inhibition of CBS activity [8]: 15–20%

Compound: C#CCC(N)C(=O)O (stereo not drawn) [PAG]
- CBS inhibition [8]: is not an inhibitor of CBS

Compound: NNCc1ccc(O)c(O)c1O [2,3,4-trihydroxybenzylhydrazine]
- Effect on HCT116 cell proliferation (words) [2]: inhibited HCT116 cell proliferation in vitro at 10–300 μM
- inhibition at 30 µM ([3]; read-out: % inhibition of recombinant CBS activity, 30 μM, standard assay conditions): 51 ± 2%
- inhibition at 100 µM ([3]; read-out: % inhibition of recombinant CBS activity, 100 μM, standard assay conditions, freshly dissolved): 82%
- MTT conversion in HCT116 cells [4]: reduced MTT conversion at 300 μM
- Cytotoxicity / LDH release in HCT116 cells [5]: did not exert cytotoxic effects

Compound: NNC(=O)c1ccncc1 [isoniazid]
- % inhibition of CBS activity [8]: 15–20%

Compound: Oc1c(Cl)cc(Cl)c(Cl)c1Cc1c(O)c(Cl)cc(Cl)c1Cl.Oc1c(Cl)cc(Cl)c(Cl)c1Cc1c(O)c(Cl)cc(Cl)c1Cl [Hexachlorophene, 2,2′-methylenebis(3,4,6-trichlorophenol)-3,4,6-trichloro-2-[(2,3,5-trichloro-6-hydroxyphenyl)methyl]phenol]
- % inhibition of GYY4137-induced AzMC fluorescence ([1]; 10 μM, mean ± SEM, n = 3): −4 ± 2%
- Confirmation (% inhibition of GYY4137-induced AzMC fluorescence) ([1]; 30 μM, mean ± SEM, n = 3): 1 ± 1%
- % inhibition of GYY4137-induced AzMC fluorescence ([1]; 100 μM, mean ± SEM, n = 3): −2 ± 1%
- inhibition at 10 µM [6]: 21 ± 1%
- inhibition at 30 µM [6]: 31 ± 1%
- inhibition at 100 µM [6]: 64 ± 1%
- Effect on HCT116 cell proliferation (words) [2]: did not affect HCT116 proliferation up to 3 μM; also recorded: fully inhibited cell proliferation at 10 μM; also recorded: inhibits HCT116 proliferation at fairly low concentrations (10 μM)
- IC50 [3]: ~60000 nM
- inhibition at 10 µM ([3]; read-out: % inhibition of CBS-induced AzMC fluorescence, 10 μM, mean ± SEM, n = 3): 3 ± 1%
- inhibition at 100 µM ([3]; read-out: % inhibition of CBS-induced AzMC fluorescence, 100 μM, mean ± SEM, n = 3): 70 ± 1%
- inhibition at 30 µM ([3]; read-out: Confirmation (% inhibition of CBS-induced AzMC fluorescence), 30 μM, mean ± SEM, n = 3): 12 ± 1%
- inhibition at 30 µM ([3]; read-out: Initial screen (% inhibition of CBS-induced AzMC fluorescence), 30 μM): 48%
- Cytotoxicity / LDH release in HCT116 cells [5]: exerted cytotoxic effects
